In PubChem BioAssay (NCI) one finds GI50 and TGI data, which are given here for one compound.

Common to all, as to test: inhibition of tumour cell growth, NCI panel, 48 h
The subject of assay [1] is CCRF-CEM leukemia.
Assay [2] has as its system MDA-MB-435.
Assay [3] concerns IGROV1 ovarian.
The subject of assay [4] is EKVX NSCLC.
Assay [5] relates to SF-295 CNS.
Assay [6] deals with U251 CNS.
The subject of assay [7] is PC-3 prostate.
For assay [8], the system named is MOLT-4 leukemia.
For assay [9], the system named is NCI-H226 lung.
Assay [10] relates to TK-10 renal.

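Grown in 96-well plates, cells were treated for 48 hours with each compound at five concentrations. Insufficient inhibition: endpoint recorded as highest concentration tested. GI50 is the concentration that inhibits growth by half. TGI denotes the concentration required for complete inhibition of growth.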

For `COc1ccc(OC)c2c1[nH]c(=O)c1c3ncccc3cn21`, the GI50 in assay [1] was 3.32 µM; in [2], 3.85 µM; in [3], 3.21 µM; in [4], 4.91 µM; in [5] it was 2.92 µM; in assay [6], 3.63 µM. Besides, the GI50 is 4.73 µM in [7], 3.59 µM in assay [8], 2.41 µM in assay [9] and 4.07 µM in assay [10]. In addition, the TGI in assay [1] is above 100 µM; in [2] it was above 100 µM; in [3], above 100 µM; in assay [4], above 100 µM; in assay [5] it was above 100 µM; in assay [6], 27.8 µM. For the same compound, the TGI in [7] was above 100 µM; in assay [8], above 100 µM; in assay [9] it was above 100 µM; in [10], 13.6 µM.
